Results from patent US20230045421A1 (priority 2018, published 2023).
Where two headings read alike, the source gives them in different places.

Tested on: HBV rcDNA
Assay: HepDE19 assay with bDNA quantitation of HBV rcDNA
Format: cell-based, hepatitis B virus
Outline: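 Compounds, top concentration 25 μM in 8-point duplicate series, were applied to Tet-free HepDE19 cultures for 7 days. Branched-DNA quantitation of HBV rcDNA against untreated wells gave EC50 and EC90 by 4-parameter fit. Viability (CC50) came from ATP luminescence on parallel plates incubated 4 days.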

[1] = Hepatitis B virus, HepDE19, HepDE19 assay, inhibition of formation of rcDNA, read-out: DE-19bDNA EC50
[2] = Hepatitis B virus, HepDE19, read-out: DE-19bDNA EC50 (μM), HepDE19 assay, inhibition of formation of relaxed circular DNA (rcDNA), bDNA quantitation

Compound: CC(c1c[nH]c(=O)c2cnccc12)N(C)C(=O)Nc1ccc(F)c(Cl)c1 (stereo not drawn) [Compound 111, 3-(3-Chloro-4-fluorophenyl)-1-methyl-1-(1-(1-oxo-1,2-dihydro-2,7-naphthyridin-4-yl)ethyl)urea]
- EC50 [1]: 0.25 µM

Compound: CNC(=O)CN(C(=O)Nc1ccc(F)c(Cl)c1)C(C)c1c[nH]c(=O)c2ccccc12 (stereo not drawn) [Compound 116, 2-(3-(3-Chloro-4-fluorophenyl)-1-(1-(1-oxo-1,2-dihydroisoquinolin-4-yl)ethyl)ureido)-N-methylacetamide]
- EC50 [1]: 1 µM

Compound: CC(c1c[nH]c(=O)c2ccncc12)N(C)C(=O)Nc1ccc(F)c(Cl)c1 (stereo not drawn) [Compound 127, 3-(3-chloro-4-fluorophenyl)-1-methyl-1-(1-(1-oxo-1,2-dihydro-2,6-naphthyridin-4-yl)ethyl)urea]
- EC50 [1]: 1 µM

Compound: CC(c1c[nH]c(=O)c2ncccc12)N(C)C(=O)Nc1ccc(F)c(Cl)c1 (stereo not drawn) [Compound 153, 3-(3-chloro-4-fluorophenyl)-1-methyl-1-(1-(8-oxo-7,8-dihydro-1,7-naphthyridin-5-yl)ethyl)urea]
- EC50 [1]: 0.87 µM

Compound: CC(c1c[nH]c(=O)c2cnccc12)N(CCCO)C(=O)Nc1ccc(F)c(Cl)c1 (stereo not drawn) [Compound 159, 3-(3-Chloro-4-fluorophenyl)-1-(3-hydroxypropyl)-1-(1-(1-oxo-1,2-dihydro-2,7-naphthyridin-4-yl)ethyl)urea]
- EC50 [1]: 0.1 µM

Compound: CC(c1c[nH]c(=O)c2ccccc12)N(CC1CCOC1)C(=O)Nc1ccc(F)c(Cl)c1 (stereo not drawn) [Compound 165]
- EC50 [1]: 1.4 µM

Compound: CC(c1c[nH]c(=O)c2ccccc12)N(CC1CCOC1)C(=O)Nc1ccc(F)c(Cl)c1 (stereo not drawn) [Compound 175]
- EC50 (HepDE19 assay, inhibition of formation of rcDNA, read-out: DE-19bDNA EC50): 0.85 µM

Compound: C[C@H](c1c[nH]c(=O)c2ccccc12)N(C)C(=O)Nc1ccc(Cl)cc1 [Compound 293, (R)-3-(4-Chlorophenyl)-1-methyl-1-(1-(1-oxo-1,2-dihydroisoquinolin-4-yl)ethyl)urea]
- EC50 [2]: 0.34 µM

Compound: C[C@H](c1c[nH]c(=O)c2ccccc12)N(C)C(=O)Nc1ccc(Br)cc1 [Compound 294, (R)-3-(4-Bromophenyl)-1-methyl-1-(1-(1-oxo-1,2-dihydroisoquinolin-4-yl)ethyl)urea]
- EC50 [2]: 0.87 µM

Compound: CC(c1c[nH]c(=O)c2c(F)cc(F)cc12)N(CCCO)C(=O)Nc1ccc(F)c(Cl)c1 (stereo not drawn) [Compound 373, 3-(3-Chloro-4-fluorophenyl)-1-(1-(6,8-difluoro-1-oxo-1,2-dihydroisoquinolin-4-yl)ethyl)-1-(3-hydroxypropyl)urea]
- EC50 (Hepatitis B virus, HepDE19, HepDE19 assay, inhibition of formation of relaxed circular DNA (rcDNA), bDNA quantitation, read-out: DE-19bDNA EC50): 2.6 µM

Compound: CC(NC(=O)Nc1ccc(F)c(Cl)c1)c1c[nH]c(=O)c2cc(F)c(F)cc12 (stereo not drawn) [Compound 480, 1-(3-Chloro-4-fluorophenyl)-3-(1-(6,7-difluoro-1-oxo-1,2-dihydroisoquinolin-4-yl)ethyl)urea]
- EC50 [2]: 0.85 µM

Compound: CC(NC(=O)Nc1ccc(F)c(C#N)c1)c1c[nH]c(=O)c2cc(F)c(F)cc12 (stereo not drawn) [Compound 495, 1-(3-Cyano-4-fluorophenyl)-3-(1-(6,7-difluoro-1-oxo-1,2-dihydroisoquinolin-4-yl)ethyl)urea]
- EC50 [2]: 0.33 µM
